# According to patent US9012411B2, “Formulations from derivatives of curcumin, paclitaxel, and aspirin” (Organomed Corporation, priority 2009, dated 2015):
# “Also recorded” adds a separate entry of the source. Marks after values point to notes of the source that are not given here.
# Legend:
# [1] = tested on: carrageenan induced rat paw edema; assay: Carrageenan induced rat paw edema; assay type: in vivo, albino rats; conditions: for Percent inhibition of paw edema (Std. Error): Example 9, 100 mg/kg oral with food; for Paw circumference: Example 8 (in vivo), 100 mg/kg oral with food
# Description: Animals were kept under 13 hour day night cycle. Animals were given standard diet and water was provided ad, libitum. All animals were acclimatized for at least one week before the experimental session. Animals were divided in to five groups. Each group consisted of 8 animals.
# Pedal inflammation in albino rats of either sex was produced according to the method of Winter et al., (Proc Soc Exp Biol Med 1963; 111: 544-7). An injection was made with 0.1 ml of 1% carrageenan (SIGMA) suspension into the right hind foot of each rat in the plantar region. […] Control group 5 was given 0.5 ml saline and groups 1 and 2 received aspirin. Increase in linear paw circumference was measured by tying a piece of cotton thread round the rat's paw, and noting the point of intersection of two ends on a meter scale. This was taken as an index of increase in paw volume, which is a measure of oedema (Bamgbose S O A, Noamesi B K. Planta Med 1981; 42: 392-6). Measurements were taken immediately before and at 1, 2 and 3 hours after carrageenan injection. The inhibitory activity was calculated according to the following formula (Awe S O, Olajide O A, Adeboye J O, Makinde J M. Indian J Pharmacol 1998; 30: 38-42):
# [formula] Ct-Linear paw circumference 3 hours after carrageenan injection and Co-Linear paw circumference before carrageenan injection.
# Albino rats obtained from central animal house of institute were used in the study. The animals were kept under 12 hour day night cycle. Animals were given standard diet and water was provided ad libitum. All animals were acclimatized for at least one week before the experimental session. Animals were divided into twelve groups in the carrageenan induced paw edema and tail flick method. Each group consisted of 4 animal each.
# Animals were divided into eight groups in the carrageenan induced paw edema and tail flick method. Each group consisted of 6 animal each. The groups received various chemicals as given in Table 16 by oral administration with food. The following methods were used to evaluate the activity of the compositions:
# Pedal inflammation in albino rats of either sex was produced according to the method of Winter et al. (Proc. Soc. Exp. Biol. Med., 1963, 111: 544-547). An injection was made with 0.1 ml of 1% carrageenan (SIGMA) suspension into the right hind foot of each rat in the plantar region. The various chemicals were given 30 minutes before carrageenan injection. Increase in linear paw circumference was measured by tying a piece of cotton thread round the rat's paw, and noting the point of intersection of two ends on a meter scale. This was taken as an index of increase in paw volume, which is a measure of edema (Bamgbose, S. O. A. & Noamesi, B. K., Planta. Med., 1981, 42: 392-396). Measurements were taken immediately before and at 1, 2 and 3 hours after carrageenan injection. The inhibitory activity was calculated according to the following formula (Awe S O, Olajide O A, Adeboye J O, Makinde J M. Indian J. Pharmacol., 1998; 30: 38-42):
# Animals were divided into six groups in the carrageenan induced paw edema and tail flick method. Each group consisted of 8 animals each. Carrageenan-induced rat paw edema and Tail flick test were performed as discussed above in Example 8. Data were analyzed using analysis of variance (ANOVA) with Posthoc Bonferroni multi-comparisons. P<0.05 was considered as statistically significant.
# [2] = tested on: tail flick latency in rats; assay: Tail flick test (analgesic activity); assay type: in vivo, albino rats
# Description: Rats were screened for tail flip reaction with a cut-off time of 5 seconds. For each animal, the tail flick latency was obtained thrice before drug administration and mean was used as pre-drug latency. The tail flick latencies were measured at 0, 0.5, 1, 1.5, 2 and 3 h after administration chemicals.
# Albino rats obtained from central animal house of institute were used in the study. The animals were kept under 12 hour day night cycle. Animals were given standard diet and water was provided ad libitum. All animals were acclimatized for at least one week before the experimental session. […] Each group consisted of 4 animal each.
# Rats were screened for tail flip reaction with a cut-off time of 5 seconds. For each animal, the tail flick latency was obtained thrice before drug administration and mean was used as pre-drug latency. The tail flick latencies were measured at 0, 0.5, 1, 1.5, 2 and 3 h after administration of chemicals.
# Each group consisted of 8 animals each. […] Data were analyzed using analysis of variance (ANOVA) with Posthoc Bonferroni multi-comparisons. P<0.05 was considered as statistically significant.
# [3] = tested on: pancreatic (Panc1) cancer cell line; assay: Cellular inhibition, Alamar Blue; assay type: cell-based
# Description: (§1) Assays were performed with 3 cancer cell lines: breast (SKBR3), pancreatic (Panc1), prostate (PC-3) and 1 normal (nor-cancer) cell line (WI-38). Compounds were delivered to the cells after dissolving in DMSO. Five dilutions per compound were tested on a total of 4 cell lines in 96 well plates. Cellular inhibition was measured using Alamar Blue. After addition of compound a 24 hour and 48 hour time point using fluorescent plate reader was taken. Data from plate reader was analyzed in the following way: % inhibition bar graphs, % inhibition line graphs and IC50 growth inhibition values. In Tables 7-14, IC50 units are Molar (M).
# [4] = tested on: normal (non-cancer) cell line WI-38; assay: Cellular inhibition, Alamar Blue; assay type: cell-based
# Description: as §1
# [5] = tested on: breast (SKBR3) cancer cell line; assay: Cellular inhibition, Alamar Blue; assay type: cell-based
# Description: as §1
# [6] = tested on: prostate (PC-3) cancer cell line; assay: Cellular inhibition, Alamar Blue; assay type: cell-based
# Description: as §1
# [7] = Example 9, 100 mg/kg oral with food, 30 min
# [8] = Example 9, 100 mg/kg oral with food, 60 min
# [9] = Example 9, 100 mg/kg oral with food, 90 min
# [10] = Example 9, 100 mg/kg oral with food, 120 min
# [11] = Example 9, 100 mg/kg oral with food, 180 min
# [12] = Example 9, 100 mg/kg oral with food, column headed min
Compound,"Tail flick latency time [2, 7]","Tail flick latency time [2, 8]","Tail flick latency time [2, 9]","Tail flick latency time [2, 10]","Tail flick latency time [2, 11]","Tail flick latency time [2, 12]","IC50 ([3]; PANC1, 24 hours)","IC50 ([3]; PANC1, 48 hours)","IC50 ([4]; WI38, 24 hours)","IC50 ([4]; WI38, 48 hours)","IC50 ([5]; SKBR3, 24 hours)","IC50 ([5]; SKBR3, 48 hours)","IC50 ([6]; PC3, 24 hours)","IC50 ([6]; PC3, 48 hours)",further results
Curcumin diglutarate [NJ-104-5],3.5625 s,3.6125 s,3.7375 s,3.05 s,3.5625 s,3.05 s,,,,,,,,,"Percent inhibition of paw edema (Std. Error) ([1]; 1 hr): 49.26 (3.94) %; Percent inhibition of paw edema (Std. Error) ([1]; 2 hr): 37.50 (5.11) %; Percent inhibition of paw edema (Std. Error) ([1]; 3 hr): 20.05 (8.34) %; Analgesic activity, tail flick (in words) ([2]; Example 9, 100 mg/kg oral): strong activity at 90 and 180 minutes; also recorded: strong analgesic activity"
curcumin-glutarate [MT-76-1],,,,,,,35.4 µM,123 µM,298 µM,166 µM,169 µM,118 µM,127 µM,71.6 µM,
COc1cc(/C=C/C(=O)CC(=O)/C=C/c2ccc(O)c(OC)c2)ccc1O [Curcumin],,,,,,,,,,,,,29.5 µM,24.2 µM,"Paw circumference ([1]; 0 h): 3.2 mm; Paw circumference ([1]; 1 h): 3.68 mm; Paw circumference ([1]; 2 h): 3.45 mm; Paw circumference ([1]; 3 h): 3.53 mm; Tail flick latency time ([2]; Example 8 (in vivo), 100 mg/kg oral with food, 0 min): 2.67 s; Tail flick latency time ([2]; Example 8 (in vivo), 100 mg/kg oral with food, 30 min): 2.58 s; Tail flick latency time ([2]; Example 8 (in vivo), 100 mg/kg oral with food, 60 min): 2.8* seconds; Tail flick latency time ([2]; Example 8 (in vivo), 100 mg/kg oral with food, 90 min): 3.18* seconds; Tail flick latency time ([2]; Example 8 (in vivo), 100 mg/kg oral with food, 120 min): 3.03 s; Tail flick latency time ([2]; Example 8 (in vivo), 100 mg/kg oral with food, 180 min): 2.68 s; Tail flick / analgesic activity (in words) ([2]; Example 8 (in vivo), oral, 100 mg/kg total (combinations 50 mg/kg each)): stronger activity at 60 and 90 minutes; IC50 ([3]; Homo sapiens, PANC-1, PANC1, 24 hours): 41.5 µM; IC50 ([3]; Homo sapiens, PANC-1, PANC1, 48 hours): 38.2 µM; inhibition of normal lung cells (WI-38) ([4]; 24 hours, 100, 150 and 300 uM): over 20%; IC50 ([4]; Homo sapiens, WI-38, WI38, 24 hours): 1000 µM; IC50 ([4]; Homo sapiens, WI-38, WI38, 48 hours): 89.9 µM; IC50 ([5]; Homo sapiens, SK-BR-3, SKBR3, 24 hours): 84.1 µM; IC50 ([5]; Homo sapiens, SK-BR-3, SKBR3, 48 hours): 99.4 µM"
diacetylcurcumin [NJ-58-1],3.675 s,3.6125 s,3.6375 s,3.4375 s,3.675 s,3.4375 s,268 µM,133 µM,4390 µM,155 µM,171 µM,125 µM,96.1 µM,67 µM,"Anti-inflammatory activity, paw edema (in words) ([1]; Example 9, 100 mg/kg oral): strong; Percent inhibition of paw edema (Std. Error) ([1]; 1 hr, listed as Curcumin diacetate): 76%; Percent inhibition of paw edema (Std. Error) ([1]; 1 hr, listed as NJ-104-4): 76.49 (8.35) %; Percent inhibition of paw edema (Std. Error) ([1]; 2 hr, listed as Curcumin diacetate): 80%; Percent inhibition of paw edema (Std. Error) ([1]; 2 hr, listed as NJ-104-4): 80.56 (5.84) %; Percent inhibition of paw edema (Std. Error) ([1]; 3 hr, listed as Curcumin diacetate): 76%; Percent inhibition of paw edema (Std. Error) ([1]; 3 hr, listed as NJ-104-4): 76.74 (8.22) %; inhibition of normal lung cells (WI-38) ([4]; 24 hours): less than 10%"
